Data reported in patent publication US20250154144A1 (CHILDREN'S HOSPITAL MEDICAL CENTER, priority 2021, published 2025).
Where two headings read alike, the source gives them in different places.

Key:
FLT3 D835Y = molecular target: T1, FLT3 D835Y (Homo sapiens, UniProt P36888, D835Y); test: DiscoverX KINOMEscan competition binding, FLT3 D835Y
T1 construct: purchased DiscoverX (KINOMEscan)
T1 sequence (P36888 27-993 D835Y): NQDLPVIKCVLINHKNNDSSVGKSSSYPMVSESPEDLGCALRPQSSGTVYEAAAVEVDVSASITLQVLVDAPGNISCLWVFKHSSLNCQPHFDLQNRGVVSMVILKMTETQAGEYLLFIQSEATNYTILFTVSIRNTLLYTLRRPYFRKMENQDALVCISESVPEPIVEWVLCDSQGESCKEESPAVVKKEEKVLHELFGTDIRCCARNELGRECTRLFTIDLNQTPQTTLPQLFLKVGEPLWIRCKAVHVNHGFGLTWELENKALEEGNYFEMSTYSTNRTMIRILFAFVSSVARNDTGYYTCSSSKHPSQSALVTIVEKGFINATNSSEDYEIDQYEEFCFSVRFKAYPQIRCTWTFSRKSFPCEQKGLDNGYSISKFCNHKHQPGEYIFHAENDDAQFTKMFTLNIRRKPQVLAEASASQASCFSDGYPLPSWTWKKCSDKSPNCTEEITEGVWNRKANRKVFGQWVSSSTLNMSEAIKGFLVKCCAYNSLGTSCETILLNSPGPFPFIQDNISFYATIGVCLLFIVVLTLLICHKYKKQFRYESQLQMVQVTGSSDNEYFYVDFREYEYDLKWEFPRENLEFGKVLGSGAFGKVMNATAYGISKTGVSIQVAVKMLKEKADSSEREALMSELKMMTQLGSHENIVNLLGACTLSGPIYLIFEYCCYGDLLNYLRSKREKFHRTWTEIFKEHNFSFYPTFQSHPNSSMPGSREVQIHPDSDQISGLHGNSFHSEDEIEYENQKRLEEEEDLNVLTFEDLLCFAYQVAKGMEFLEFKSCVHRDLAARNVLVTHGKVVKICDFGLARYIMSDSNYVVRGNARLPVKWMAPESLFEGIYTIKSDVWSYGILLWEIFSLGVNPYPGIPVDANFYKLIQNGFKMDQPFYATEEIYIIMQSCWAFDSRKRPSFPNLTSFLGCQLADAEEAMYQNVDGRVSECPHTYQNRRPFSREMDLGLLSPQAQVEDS

THP1 cells = test: Combination drug screening, Cell Titer Glo, 10 × 10 matrix, THP1 cells; type: cell-based
MOLM14(D835Y) cells = type: cell-based
[1] = starting conc. 100 nM, with (+)-BAY-1251152 starting conc. 1000 nM
[2] = starting conc. 100 nM, with Azacitidine (5-Azacytidine) starting conc. 20000 nM
[3] = starting conc. 100 nM, with Palbociclib starting conc. 10000 nM
[4] = starting conc. 100 nM, with Prednisolone starting conc. 10000 nM
[5] = starting conc. 100 nM, with TNO-155 starting conc. 10000 nM
[6] = starting conc. 100 nM, with Venetoclax (ABT-199) starting conc. 2000 nM
[7] = starting conc. 100 nM, with Venetoclax (ABT-199) starting conc. 20000 nM
[8] = starting conc. 20000 nM, with (+)-BAY-1251152 starting conc. 1000 nM
[9] = starting conc. 20000 nM, with Azacitidine (5-Azacytidine) starting conc. 20000 nM
[10] = starting conc. 20000 nM, with Palbociclib starting conc. 10000 nM
[11] = starting conc. 20000 nM, with Prednisolone starting conc. 10000 nM
[12] = starting conc. 20000 nM, with TNO-155 starting conc. 10000 nM
[13] = starting conc. 20000 nM, with Venetoclax (ABT-199) starting conc. 2000 nM
[14] = starting conc. 20000 nM, with Venetoclax (ABT-199) starting conc. 20000 nM

COc1cc2ncc(-c3ccnc(N[C@H]4CNC[C@@H]4F)n3)n2nc1C1CC1 [Compound 49, 4-(6-cyclopropyl-7-methoxyimidazo[1,2-b]pyridazin-3-yl)-N-((3S,4S)-4-fluoropyrrolidin-3-yl)pyrimidin-2-amine]
Kd (FLT3 D835Y): 0.41 nM

COc1cc2ncc(-c3ccnc(N[C@@H]4CCCNC4)n3)n2nc1C1CC1 [Compound 50, (R)-4-(6-cyclopropyl-7-methoxyimidazo[1,2-b]pyridazin-3-yl)-N-(piperidin-3-yl)pyrimidin-2-amine]
Excess HSA Score (THP1 cells; THP1 cells, 10 × 10, combination with (+)-BAY-1251152): −396.5
Excess HSA Score (THP1 cells; THP1 cells, 10 × 10, combination with AMG-232): 252
Excess HSA Score (THP1 cells; THP1 cells, 10 × 10, combination with AZD-5363): −475
Excess HSA Score (THP1 cells; THP1 cells, 10 × 10, combination with Eprenetapopt/APR-246): −218.2
Excess HSA Score (THP1 cells; THP1 cells, 10 × 10, combination with Ivosidenib): −149.8
Excess HSA Score (THP1 cells; THP1 cells, 10 × 10, combination with Lenalidomide): 333.7
Excess HSA Score (THP1 cells; THP1 cells, 10 × 10, combination with Palbociclib): −273.2
Excess HSA Score (THP1 cells; THP1 cells, 10 × 10, combination with Prednisolone): −429.3
Excess HSA Score (THP1 cells; THP1 cells, 10 × 10, combination with SNDX-5613): −9.013
Excess HSA Score (THP1 cells; THP1 cells, 10 × 10, combination with TNO-155): 306.2
Excess HSA Score (THP1 cells; THP1 cells, 10 × 10, combination with Trametinib): −475.4
Excess HSA Score (THP1 cells; THP1 cells, 10 × 10, combination with Ulixertinib): −358.5769
Excess HSA Score (THP1 cells; THP1 cells, 10 × 10, combination with Venetoclax (ABT-199)): −2869
Comments (THP1 cells; THP1 cells, combination with AMG-232): Antagonistic
Comments (THP1 cells; THP1 cells, combination with Venetoclax (ABT-199)): Synergistic
Comments (THP1 cells; [1]): Synergistic at both
Excess HSA Score (THP1 cells; [1]): −408.4
Comments (THP1 cells; [2]): Synergistic at both
Excess HSA Score (THP1 cells; [2]): −164.8
Comments (THP1 cells; [3]): Antagonistic over
Excess HSA Score (THP1 cells; [3]): 19.42
Comments (THP1 cells; [4]): Antagonistic at both
Excess HSA Score (THP1 cells; [4]): 76.0598
Excess HSA Score (THP1 cells; [5]): 0.06789
Comments (THP1 cells; [6]): Synergistic; Optimal
Excess HSA Score (THP1 cells; [6]): −911.4
Comments (THP1 cells; [7]): Synergistic; Optimal
Excess HSA Score (THP1 cells; [7]): −1400
Comments (THP1 cells; [8]): Synergistic at both
Excess HSA Score (THP1 cells; [8]): −293.4
Comments (THP1 cells; [9]): Synergistic at both
Excess HSA Score (THP1 cells; [9]): −347.5
Excess HSA Score (THP1 cells; [10]): −482.7
Comments (THP1 cells; [11]): Antagonistic at both
Excess HSA Score (THP1 cells; [11]): 541.6925
Comments (THP1 cells; [12]): Antagonistic
Excess HSA Score (THP1 cells; [12]): 230.5
Comments (THP1 cells; [13]): Synergistic; Optimal
Excess HSA Score (THP1 cells; [13]): −27.96
Comments (THP1 cells; [14]): Synergistic; Optimal
Excess HSA Score (THP1 cells; [14]): −1808
Excess HSA Score (MOLM14(D835Y) cells; MOLM14(D835Y) cells, 10 × 10, combination with (+)-BAY-1251152): −552.5
Excess HSA Score (MOLM14(D835Y) cells; MOLM14(D835Y) cells, 10 × 10, combination with AMG-232): −129.9
Excess HSA Score (MOLM14(D835Y) cells; MOLM14(D835Y) cells, 10 × 10, combination with AZD-5363): 12.5
Excess HSA Score (MOLM14(D835Y) cells; MOLM14(D835Y) cells, 10 × 10, combination with Eprenetapopt/APR-246): −99.03
Excess HSA Score (MOLM14(D835Y) cells; MOLM14(D835Y) cells, 10 × 10, combination with Ivosidenib): 219
Excess HSA Score (MOLM14(D835Y) cells; MOLM14(D835Y) cells, 10 × 10, combination with Lenalidomide): 555
Excess HSA Score (MOLM14(D835Y) cells; MOLM14(D835Y) cells, 10 × 10, combination with Palbociclib): −528.5
Excess HSA Score (MOLM14(D835Y) cells; MOLM14(D835Y) cells, 10 × 10, combination with Prednisolone): 196.6
Excess HSA Score (MOLM14(D835Y) cells; MOLM14(D835Y) cells, 10 × 10, combination with SNDX-5613): −229.3
Excess HSA Score (MOLM14(D835Y) cells; MOLM14(D835Y) cells, 10 × 10, combination with TNO-155): −1021
Excess HSA Score (MOLM14(D835Y) cells; MOLM14(D835Y) cells, 10 × 10, combination with Trametinib): −342.3
Excess HSA Score (MOLM14(D835Y) cells; MOLM14(D835Y) cells, 10 × 10, combination with Ulixertinib): 149.4
Excess HSA Score (MOLM14(D835Y) cells; MOLM14(D835Y) cells, 10 × 10, combination with Venetoclax (ABT-199)): −1391
Comments (MOLM14(D835Y) cells; MOLM14(D835Y) cells, combination with AZD-5363): Antagonistic
Comments (MOLM14(D835Y) cells; MOLM14(D835Y) cells, combination with Venetoclax (ABT-199)): Synergistic
Comments (MOLM14(D835Y) cells; [1]): Synergistic
Excess HSA Score (MOLM14(D835Y) cells; [1]): −317.9
Excess HSA Score (MOLM14(D835Y) cells; [2]): −579.8
Excess HSA Score (MOLM14(D835Y) cells; [3]): −1019
Excess HSA Score (MOLM14(D835Y) cells; [4]): 9.258
Comments (MOLM14(D835Y) cells; [5]): Synergistic
Excess HSA Score (MOLM14(D835Y) cells; [5]): −1043.6684
Comments (MOLM14(D835Y) cells; [6]): Synergistic;
Excess HSA Score (MOLM14(D835Y) cells; [6]): −1372
Comments (MOLM14(D835Y) cells; [7]): Synergistic;
Excess HSA Score (MOLM14(D835Y) cells; [7]): −83.83
Comments (MOLM14(D835Y) cells; [8]): Antagonistic
Excess HSA Score (MOLM14(D835Y) cells; [8]): 67.99
Excess HSA Score (MOLM14(D835Y) cells; [9]): −56.9
Excess HSA Score (MOLM14(D835Y) cells; [10]): −31.37
Excess HSA Score (MOLM14(D835Y) cells; [11]): 121.2
Comments (MOLM14(D835Y) cells; [12]): Additive
Excess HSA Score (MOLM14(D835Y) cells; [12]): −2.487
Comments (MOLM14(D835Y) cells; [13]): Synergistic;
Excess HSA Score (MOLM14(D835Y) cells; [13]): −1026
Comments (MOLM14(D835Y) cells; [14]): Synergistic;
Excess HSA Score (MOLM14(D835Y) cells; [14]): −74.01

COc1cc2ncc(-c3ccnc(N[C@H]4CNCC[C@@H]4F)n3)n2nc1C1CC1 [Compound 51, 4-(6-cyclopropyl-7-methoxyimidazo[1,2-b]pyridazin-3-yl)-N-((3S,4S)-4-fluoropiperidin-3-yl)pyrimidin-2-amine]
Kd (FLT3 D835Y): 0.35 nM
